Here are results for 1 molecule from patent US6218378A, “Anti-tumor agents comprising pyridyl-substituted metal-diphosphine complex” (priority 1994, dated 2001).

In one data set the test system is CI-80-13S. Kind of data set: cell survival after drug treatment ([methyl-3H]-thymidine). In kind it is cell-based, human. The text has this:
(§1) In FIGS. 1-4 and Table 1, reference is made to the cell lines HeLa, HeLa-S1a, JAM, CI-80-13S and MM96.
(§2) The origins of the human melanoma cell line MM96 has been described in Whitehead et al., 1973, Pigment Cell 1 383-389. The cell line JAM is described in Ward et al., 1987, Cancer Res. 47 2662-2667. The origin of the ovarian tumour line CI-80-13S has been described in Bertoncello et al., 1985, Aust. J. Exp. Biol. Med. Sci. 63 241-243. The origin of the cervical carcinoma cell line HeLa has been described in Maynard et al., 1986, Cancer Res. 46 5009-5093. The subclone HeLa-S1a was derived by stably transfecting HeLa with PAI-2 cDNA described in Schleuning et al., 1987, Mol. Cell. Biol. 7 4564-4567 in the sense orientation under the control of the cyto-megalovirus (CMV) promoter. The stably infected subclone was isolated following G418 selection and expression of the PAI-2 transgene characterised by immunoblot analysis and quantitated by ELISA. All of these cell lines have been used before for carrying out cell survival assays referred to in FIGS. 1-4. Cells were cultured at 37° in 5% CO2 /air in Roswell Park Memorial Institute medium 1640 containing 5% foetal calf serum, 100 μg/ml streptomycin, 100 IU/ml penicillin, 1 mM pyruvate, 50 μM nicotinamide and 3 mM HEPES.
(§3) Cells were seeded in microtitre plates (lowest number for fastest growing cells: 1000 HeLa, 2000 MM96, […] CI-80-13S cells per 6 mm well in 100 μl), normally but not necessarily allowed to attach overnight, then 5 dilutions of the drug were added to duplicate wells. After an overnight incubation to equilibrate the pH, the lids were quickly taped around the edge to prevent evaporation. The plates were incubated for 5-7 days, until the controls were nearly confluent. Cell growth/morphology was scored at each dose visually (inverted microscope). The medium was then replaced by 50 μl fresh medium containing 2 u/Ci/ml [methyl-3H]-thymidine (5 Ci/mmol; Radiochemical Centre, Amersham, Bucks., U.K.) and incubated for 2-4 hr. The cells were washed with PBS (0.1 M NaCl, 50 mM phosphate, pH 7.2), detached with 100 μl of PBS containing 0.2 mg/ml trypsin and 10 mM EDTA, and washed onto a glass fibre GF/a filter mat with water using a cell harvester. Later, wells were checked under the microscope to ensure complete detachment and washout. Radioactivity was determined in an LKB Beta Plate counter and the results plotted as log % control cpm versus dose. The ID50 (dose required to give 50% survival) was interpolated from this survival curve.

The next data set deals with HeLa-S1a. The description is as above. The data set is classed as cell-based, human.
Excerpt: as §1, §2, §3

A further data set has as its system HeLa. The description is as above. In kind it is cell-based, human.
Excerpt: as §1, §2, §3

The test system of a further data set is MM96. The description is as above. In kind it is cell-based, human.
Excerpt: as §1, §2, §3

The subject of the next data set is 41M-cisR. Kind of data set: cytotoxicity assay, sulforhodamine B. The data set is classed as cell-based, human. The conditions noted are these: 96 hrs, mean ± SD or individual values when n<3. The protocol:
(§4) In Table 2, reference is made to cell lines 41M, 41M-cisR, SKOV-3, CH1 and CH1-cisR.
(§5) J. Cancer 69 1-7. The characteristics of the cell line pairs CH1/CH1 cisR, 41M/41McisR and 41M/SKOV3 are described in Table 3.
(§6) The cytotoxicity assay used sulforhodamine B which stains the basic amino acids. Cells (5000 or 2500 for SKOV-3) were seeded into 96 well microtitre plates (Linbro, Flow Laboratories Inc., USA) in 0.1 ml of medium. After an overnight incubation, the metal phosphine compounds were dissolved in 0.9% NaCl or ethanol and diluted with medium, were added at concentrations ranging from 0.005 to 50 μM to quadruplicate wells. After 96 hrs incubation, the medium was removed and cells were fixed in 0.2 ml of cold 10% (w/v) trichloroacetic acid (May & Baker Ltd., Dagenham, England) for 30 mins at 4° C. The plates were washed five times with tap water. Then 0.1 ml of 0.4% (w/v) sulforhodamine B (Sigma Chemical Co., St. Louis, USA) dissolved in 1% acetic acid (Ajax Chemicals, Australia) was added to the wells and left to stand at room temperature for 15 mins. The plates were then washed five times with 1% acetic acid and left to dry overnight. The next morning, 0.1 ml of 10 mM Tris buffer (Sigma Chemical Co., St. Louis, USA) was then added to each plate to solubilise the dye. Absorbance was read at a wavelength of 570 nm using a 96 well plate reader Dynatech MR 5000 plate reader. Absorbance of treatment cells was expressed as a percentage of positive (drug-free) controls. The results were plotted as percentage growth versus drug concentration.

For the next data set, the system named is 41M. In words: cytotoxicity assay, sulforhodamine B. In kind it is cell-based, human. The settings on record: 96 hrs, mean ± SD or individual values when n<3. The protocol:
as §4, §5, §6

The next data set deals with CH1-cisR. Kind of data set: cytotoxicity assay, sulforhodamine B. The data set is classed as cell-based, human. The settings on record: 96 hrs, mean ± SD or individual values when n<3. The protocol:
as §4, §5, §6

A further data set has as its system CH1. In words: cytotoxicity assay, sulforhodamine B. The data set is classed as cell-based, human. The settings on record: 96 hrs, mean ± SD or individual values when n<3. On the procedure: as §4, §5, §6
A further data set concerns SKOV-3. In words: cytotoxicity assay, sulforhodamine B. The conditions noted are these: 96 hrs, mean ± SD or individual values when n<3. The data set is classed as cell-based, human. On the procedure:
as §4, §5, §6

The next data set concerns tumour models in mice. The settings on record: reference EP0198696; cited from earlier work.
For a further data set, the system named is P388 leukaemia. The settings on record: i.p. P388 leukaemia; Berners-Price et al. 1990; cited from earlier work.
The test system of data set [1] is M5076 Reticulum Cell Sarcoma. The conditions noted are these: Berners-Price et al. 1990; cited from earlier work.

Take `[Cl-].c1cc([P+]2(c3ccncc3)CC[P+](c3ccncc3)(c3ccncc3)[Au-3]23[P+](c2ccncc2)(c2ccncc2)CC[P+]3(c2ccncc2)c2ccncc2)ccn1` [[Au(d4pype)2]Cl]: the “cytotoxicity (FIGS. 1 and 2)” value in the data set on CI-80-13S (CI-80-13S ovarian in vitro) was “selectively cytotoxic”; in the data set with HeLa-S1a (HeLa-S1a in vitro), “selectively cytotoxic”; in the data set on HeLa (HeLa cervical carcinoma in vitro), “inactive”; with MM96 (MM96 melanoma in vitro) it was “inactive”. Further, the IC50 with CI-80-13S (CI-80-13S, mean ± SD or individual values when n<3, 5-7 days) is 320 ± 150 nM; with HeLa-S1a (HeLa-S1a, mean ± SD or individual values when n<3, 5-7 days) it was 300 nM; with HeLa (HeLa, mean ± SD or individual values when n<3, 5-7 days), above 10000 nM; with MM96 (MM96L, mean ± SD or individual values when n<3, 5-7 days), above 10000 nM; in the data set on 41M-cisR, above 100000 nM; in the data set with 41M, above 100000 nM. Further, the 50% inhibitory concentration (IC50) in the data set with CH1-cisR is 600 ± 200 nM; in the data set with CH1, 400 ± 100 nM; in the data set on SKOV-3 it was above 100000 nM. For the same molecule, in the data set with tumour models in mice, the “anti-tumour activity (EP0198696)” value was “insignificant anti-tumour activity”. Also, the activity in mice result (with P388 leukaemia; in data set [1]) was “inactive” in each case.
